Source: the supplement of paper PMC11208160

Assay: recombinant UMI read abundance after kanamycin selection (control-corrected) (log10(CPM+1)); higher = more efficient recombination; extreme values may be limits of the assay; sequences stand for … in AGTGCAGAGAAAATCGGCCAGTTTTCTCTGCCTGCAGTCCGCATGCCGTGGGACCCCTTGGGTTCTAACCTGTTGCCTAGATTTATGCAGCGGACTGCCTTTCTCCCAAAGTGATAAACCGG…AGGTTGGTTTCACT; site = the 11-nt donor
Procedure, shortened: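 In Escherichia coli, a pool of donor and donor-binding-loop pairs, each with a 12-nt UMI, was tested for the IS621 bridge recombinase. Plating was on IPTG (0.07 mM) plus kanamycin, or without selection, in two replicates. Recombinant UMIs were amplified by PCR across the donor–target junction and sequenced, and counts were reported as log10(CPM+1) after averaging and control-derived scaling.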
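Note: IS621 bridge recombinase in Escherichia coli cells against a fixed T5 target plasmid.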

CTGTAGTCATGGACCGGTTTTCCCGGTAATCCGTATTTGTC (site CTGTAGTCTGA)
recombinant UMI read abundance (log10): 3.24

CTGTCGCCATGGACCGGTTTTCCCGGTAATCCGTATTTGCG (site CTGTCGCCTCG)
recombinant UMI read abundance (log10): 0.00856

CTGTGCGCATGGACCGGTTTTCCCGGTAATCCGTATTTGAC (site TCCCTGTCTTC)
recombinant UMI read abundance (log10): 0.0087

CTGTTACCATGGACCGGTTTTCCCGGTAATCCGTATTTGCT (site CTGATACCTAG)
recombinant UMI read abundance (log10): 0

CTGTTACCATGGACCGGTTTTCCCGGTAATCCGTATTTGCT (site CTGCTACCTAG)
recombinant UMI read abundance (log10): 0.146

CTGTTACCATGGACCGGTTTTCCCGGTAATCCGTATTTGCT (site CTGGTACCTAG)
recombinant UMI read abundance (log10): 0

CTGTTACCATGGACCGGTTTTCCCGGTAATCCGTATTTGCT (site CTGTTACCTAG)
recombinant UMI read abundance (log10): 0

CTGTTTACATGGACCGGTTTTCCCGGTAATCCGTATTTGCT (site CAGTTTACTAG)
recombinant UMI read abundance (log10): 0.405

CTGTTTACATGGACCGGTTTTCCCGGTAATCCGTATTTGCT (site CCGTTTACTAG)
recombinant UMI read abundance (log10): 1.15

CTGTTTACATGGACCGGTTTTCCCGGTAATCCGTATTTGCT (site CGGTTTACTAG)
recombinant UMI read abundance (log10): 0

CTGTTTACATGGACCGGTTTTCCCGGTAATCCGTATTTGCT (site CTGTTTACTAG)
recombinant UMI read abundance (log10): 2.02

CTTAGCTCATGGACCGGTTTTCCCGGTAATCCGTATTTGCT (site CTTAGCTCTAG)
recombinant UMI read abundance (log10): 0

CTTCAGCCATGGACCGGTTTTCCCGGTAATCCGTATTTGGA (site CTTCAGCCTTC)
recombinant UMI read abundance (log10): 0

CTTCCCTCATGGACCGGTTTTCCCGGTAATCCGTATTTGTA (site CTTCACTCTTA)
recombinant UMI read abundance (log10): 0.00365

CTTCCCTCATGGACCGGTTTTCCCGGTAATCCGTATTTGTA (site CTTCCCTCTTA)
recombinant UMI read abundance (log10): 2.49

CTTCCCTCATGGACCGGTTTTCCCGGTAATCCGTATTTGTA (site CTTCGCTCTTA)
recombinant UMI read abundance (log10): 0.00376

CTTCCCTCATGGACCGGTTTTCCCGGTAATCCGTATTTGTA (site CTTCTCTCTTA)
recombinant UMI read abundance (log10): 0.434

CTTCTAACATGGACCGGTTTTCCCGGTAATCCGTATTTGCG (site CTTCTAACTCG)
recombinant UMI read abundance (log10): 0.213

CTTCTCGCATGGACCGGTTTTCCCGGTAATCCGTATTTGTA (site CTTCTCACTTA)
recombinant UMI read abundance (log10): 0.459

CTTCTCGCATGGACCGGTTTTCCCGGTAATCCGTATTTGTA (site CTTCTCCCTTA)
recombinant UMI read abundance (log10): 0.0264

CTTCTCGCATGGACCGGTTTTCCCGGTAATCCGTATTTGTA (site CTTCTCGCTTA)
recombinant UMI read abundance (log10): 1.29

CTTCTCGCATGGACCGGTTTTCCCGGTAATCCGTATTTGTA (site CTTCTCTCTTA)
recombinant UMI read abundance (log10): 0.0056

CTTCTCTCATGGACCGGTTTTCCCGGTAATCCGTATTTGGA (site CTTCTCTCTTA)
recombinant UMI read abundance (log10): 0.0983

CTTCTCTCATGGACCGGTTTTCCCGGTAATCCGTATTTGGA (site CTTCTCTCTTC)
recombinant UMI read abundance (log10): 1.35

CTTCTCTCATGGACCGGTTTTCCCGGTAATCCGTATTTGGA (site CTTCTCTCTTG)
recombinant UMI read abundance (log10): 0

CTTCTCTCATGGACCGGTTTTCCCGGTAATCCGTATTTGGA (site CTTCTCTCTTT)
recombinant UMI read abundance (log10): 0.925

CTTCTCTCATGGACCGGTTTTCCCGGTAATCCGTATTTGTC (site CTTCTCTCTAA)
recombinant UMI read abundance (log10): 1.6

CTTCTCTCATGGACCGGTTTTCCCGGTAATCCGTATTTGTC (site CTTCTCTCTCA)
recombinant UMI read abundance (log10): 0.0104

CTTCTCTCATGGACCGGTTTTCCCGGTAATCCGTATTTGTC (site CTTCTCTCTGA)
recombinant UMI read abundance (log10): 2.45

CTTCTCTCATGGACCGGTTTTCCCGGTAATCCGTATTTGTC (site CTTCTCTCTTA)
recombinant UMI read abundance (log10): 0.836

CTTGAAACATGGACCGGTTTTCCCGGTAATCCGTATTTGCA (site CTAGAAACTTG)
recombinant UMI read abundance (log10): 1.31

CTTGAAACATGGACCGGTTTTCCCGGTAATCCGTATTTGCA (site CTCGAAACTTG)
recombinant UMI read abundance (log10): 0.00453

CTTGAAACATGGACCGGTTTTCCCGGTAATCCGTATTTGCA (site CTGGAAACTTG)
recombinant UMI read abundance (log10): 0.538

CTTGAAACATGGACCGGTTTTCCCGGTAATCCGTATTTGCA (site CTTGAAACTTG)
recombinant UMI read abundance (log10): 2.07

CTTGACGCATGGACCGGTTTTCCCGGTAATCCGTATTTGGT (site CTTGACGCTAC)
recombinant UMI read abundance (log10): 0.601

CTTGAGTCATGGACCGGTTTTCCCGGTAATCCGTATTTGAT (site CTTGAGTCTAT)
recombinant UMI read abundance (log10): 2.13

CTTGAGTCATGGACCGGTTTTCCCGGTAATCCGTATTTGTT (site CTTGAGTCTAA)
recombinant UMI read abundance (log10): 2.46

CTTGTAACATGGACCGGTTTTCCCGGTAATCCGTATTTGGC (site CTTGTAACTGC)
recombinant UMI read abundance (log10): 0

CTTGTAGCATGGACCGGTTTTCCCGGTAATCCGTATTTGTC (site CTTGTAGCTGA)
recombinant UMI read abundance (log10): 0.797

CTTGTCTCATGGACCGGTTTTCCCGGTAATCCGTATTTGTA (site CTTATCTCTTA)
recombinant UMI read abundance (log10): 1.78

CTTGTCTCATGGACCGGTTTTCCCGGTAATCCGTATTTGTA (site CTTCTCTCTTA)
recombinant UMI read abundance (log10): 0.856

CTTGTCTCATGGACCGGTTTTCCCGGTAATCCGTATTTGTA (site CTTGTCTCTTA)
recombinant UMI read abundance (log10): 2.82

CTTGTCTCATGGACCGGTTTTCCCGGTAATCCGTATTTGTA (site CTTTTCTCTTA)
recombinant UMI read abundance (log10): 0

CTTGTGTCATGGACCGGTTTTCCCGGTAATCCGTATTTGTG (site CTTGTGTCTCA)
recombinant UMI read abundance (log10): 2.16

CTTGTTCCATGGACCGGTTTTCCCGGTAATCCGTATTTGGT (site ATTGTTCCTAC)
recombinant UMI read abundance (log10): 0.0155

CTTGTTCCATGGACCGGTTTTCCCGGTAATCCGTATTTGGT (site CTTGTTCCTAC)
recombinant UMI read abundance (log10): 0.00959

CTTGTTCCATGGACCGGTTTTCCCGGTAATCCGTATTTGGT (site GTTGTTCCTAC)
recombinant UMI read abundance (log10): 0.0201

CTTGTTCCATGGACCGGTTTTCCCGGTAATCCGTATTTGGT (site TTTGTTCCTAC)
recombinant UMI read abundance (log10): 0.0168

CTTTACGCATGGACCGGTTTTCCCGGTAATCCGTATTTGTA (site CTTTACGCTTA)
recombinant UMI read abundance (log10): 0.0146

CTTTAGACATGGACCGGTTTTCCCGGTAATCCGTATTTGAG (site CATTAGACTCT)
recombinant UMI read abundance (log10): 0.351

CTTTAGACATGGACCGGTTTTCCCGGTAATCCGTATTTGAG (site CCTTAGACTCT)
recombinant UMI read abundance (log10): 0

CTTTAGACATGGACCGGTTTTCCCGGTAATCCGTATTTGAG (site CGTTAGACTCT)
recombinant UMI read abundance (log10): 0.118

CTTTAGACATGGACCGGTTTTCCCGGTAATCCGTATTTGAG (site CTTTAGACTCT)
recombinant UMI read abundance (log10): 1.31

CTTTATACATGGACCGGTTTTCCCGGTAATCCGTATTTGTT (site CTTTATACTAA)
recombinant UMI read abundance (log10): 0.121

CTTTATTCATGGACCGGTTTTCCCGGTAATCCGTATTTGCG (site CTTTATTCTCG)
recombinant UMI read abundance (log10): 1.11

CTTTGCCCATGGACCGGTTTTCCCGGTAATCCGTATTTGCT (site CTTTGCCCTAG)
recombinant UMI read abundance (log10): 0.182

CTTTGGGCATGGACCGGTTTTCCCGGTAATCCGTATTTGCC (site CTTTGGGCTGG)
recombinant UMI read abundance (log10): 0

CTTTTATCATGGACCGGTTTTCCCGGTAATCCGTATTTGAC (site CTAGTATCTGT)
recombinant UMI read abundance (log10): 0.225

CTTTTATCATGGACCGGTTTTCCCGGTAATCCGTATTTGAC (site CTTTTATCTGT)
recombinant UMI read abundance (log10): 0.762

GAAAAACCATGGACCGGTTTTCCCGGTAATCCGTATTTGGT (site GAAAAACCTAC)
recombinant UMI read abundance (log10): 0

GAAAAACCATGGACCGGTTTTCCCGGTAATCCGTATTTGGT (site GACAAACCTAC)
recombinant UMI read abundance (log10): 0

GAAAAACCATGGACCGGTTTTCCCGGTAATCCGTATTTGGT (site GAGAAACCTAC)
recombinant UMI read abundance (log10): 0

GAAAAACCATGGACCGGTTTTCCCGGTAATCCGTATTTGGT (site GATAAACCTAC)
recombinant UMI read abundance (log10): 0

GAAAAGGCATGGACCGGTTTTCCCGGTAATCCGTATTTGTC (site GAAAAGGCTGA)
recombinant UMI read abundance (log10): 2.08

GAAACACCATGGACCGGTTTTCCCGGTAATCCGTATTTGAG (site GAAACACCTCT)
recombinant UMI read abundance (log10): 0.0146

GAAAGCCCATGGACCGGTTTTCCCGGTAATCCGTATTTGAC (site GAAAGCCCTGT)
recombinant UMI read abundance (log10): 0

GAAAGCTCATGGACCGGTTTTCCCGGTAATCCGTATTTGCC (site GAAAGCTCTGG)
recombinant UMI read abundance (log10): 2.75

GAAATCTCATGGACCGGTTTTCCCGGTAATCCGTATTTGCG (site GAAATCTCTCG)
recombinant UMI read abundance (log10): 2.44

GAAATGGCATGGACCGGTTTTCCCGGTAATCCGTATTTGAC (site GAAATGGCTGT)
recombinant UMI read abundance (log10): 1.42

GAACAATCATGGACCGGTTTTCCCGGTAATCCGTATTTGCC (site GAACAATCTGG)
recombinant UMI read abundance (log10): 1.67

GAACCGTCATGGACCGGTTTTCCCGGTAATCCGTATTTGTT (site GAACCGTCTAA)
recombinant UMI read abundance (log10): 1

GAACGAACATGGACCGGTTTTCCCGGTAATCCGTATTTGGT (site GAACGAACTAC)
recombinant UMI read abundance (log10): 1.21

GAACTAGCATGGACCGGTTTTCCCGGTAATCCGTATTTGGT (site CGTTGCCCTTA)
recombinant UMI read abundance (log10): 0.00867

GAACTGGCATGGACCGGTTTTCCCGGTAATCCGTATTTGCT (site GAACTGGCTAG)
recombinant UMI read abundance (log10): 0.00438

GAACTTGCATGGACCGGTTTTCCCGGTAATCCGTATTTGAC (site CTTACCACTAA)
recombinant UMI read abundance (log10): 0.0118
